Assay results: paper PMC5048153 (Scientific Reports, 2016)

Tests used:
H9C2 cells = assay: Cytotoxicity on H9C2 cells (MTT); format: cell-based; conditions: Rattus norvegicus, 48 h
Experimental: Human normal hepatic L02 cells, human embryonic kidney cell line 293 cells (HEK293) and Rattus myoblast cell line H9C2 cells were respectively seeded in 96-well plates at a density of 4 × 10^3 cells per well and cultured in the 1640 or DMEM medium, with the supplement of 10% fetal bovine serum, penicillin (100 unit/ml), streptomycin (100 μg/ml) in a humidified incubator with 5% CO2 for 24 h. After adherence, L02, HEK293 and H9C2 cells were exposed to different compounds for another 48 h. The cytotoxicities of the compounds were evaluated by MTT method.

SD rats [1] = assay: Forced swim test; format: in vivo, rat; conditions: ig. 32 mg/kg/day, days 2–15
Experimental: The detailed procedures were performed according to our previous studies. Briefly, each SD rat was placed in a vertical Plexiglas cylinder (height 50 cm; diameter 20 cm) containing 18 cm height of water at 25 ± 2 °C and was forced to swim individually for 15 min on1st day. From 2nd day to 15th day, the rats were intragastrically administered compound 6a-1 or control drugs at dosage of 32 mg/kg/day. On the 2nd day and 15th day, 30 minutes after drug treatment, each rat was placed again into water and forced to swim for 6 min. The rat behavior was recorded by a video camera placed directly facing cylinders. The duration of immobility during the last 4 minutes was analyzed by Xeye Animal behavior analysis system (Xeye Aba V3.2). The rat was considered as immobile when its moving speed was less than 20 mm/s. The dosage of is 32 mg/kg every day. The water in the cylinder was changed each trial. After each exposure, animals were partially dried with a towel and returned to their home cages. All tests were performed in a quiet room.

SD rats [2] = assay: Open field locomotor activity; format: in vivo, rat; conditions: ig. 32 mg/kg/day, days 2–15, vs untreated rats
Experimental: The detailed procedures were performed according to our previous studies. In brief, each SD rat was placed at the center of the open field (50 × 50 cm^2 chamber, 50-cm-high walls, with a 25 cm^2 area in the middle of floor defined as the central square) for 6 min in a quiet room. The animals were gently placed in the center of the platform and were allowed to explore the surroundings. A camera was installed above the center of the field. Immediately after a rat was placed at the center in the open field, the movements and position of the animals were recorded and registered automatically by computerized system. Next test was performed after cleaning the chamber. The traveled tracks of rats were recorded for 6 minutes and the videos of the last 4 minutes were analyzed also by Xeye Animal behavior analysis system.

[3] = test system: corticosterone injured PC12 cells; assay: Real-time PCR BDNF mRNA level; format: cell-based, rat; conditions: 200 µM corticosterone and 5 µM drug
[4] = test system: corticosterone-injured PC12 cells; assay: Intracellular calcium ion concentration analysis (Fura-2 AM); format: cell-based, rat; conditions: 200 µM corticosterone and 5 µM drug
Experimental: The detailed procedures were performed according to the reported literatures. In brief, calcium ion concentration was measured by Fura-2 AM (Thermo Scientific). PC12 cells were treated with compound 6a-1 for 48 hours. Then cells were detached with 0.25% trypsin and centrifuged at 1000 r/min for 5 minutes. The supernatant was removed and the cells were stained with Fura-2 AM according to the manufacturer’s instructions. Fluorescence intensity of labeled cells was photographed for 25 random sights each group using Thermo Scientific Array Scan Infinity.

[5] = PAMPA-BBB literature value ref 38; cited from earlier work

## COc1cccc2c1C(=O)c1c(O)c3c(c(O)c1C2=O)C[C@@](O)(C(=O)CO)C[C@@H]3O[C@H]1C[C@H](N)[C@H](O)[C@H](C)O1 [Adriamycin]
H9C2 cells
  IC50: 160 ± 20 nM

## CNCCC(Oc1ccc(C(F)(F)F)cc1)c1ccccc1 (centres unmarked) [Fluoxetine]
SD rats [1]
  mean immobility time reduced compared to the model group: 50.7%
SD rats [2]
  improved travelled distance: 69.8%
[3]
  BDNF mRNA level increase compared with corticosterone-injured group: 32.1%
[4]
  fluorescence intensity of free intracellular calcium ion: weaker fluorescence intensity than corticosterone-injured PC12 cells

## O=C1Nc2ccc(Cl)cc2C(c2ccccc2)=NC1O (centres unmarked) [Oxazepam]
[5]
  Pe, Lit.: 10 *10^−6 cm/s

## CN1C(C(=O)Nc2ccccn2)=C(O)c2ccccc2S1(=O)=O [Piroxicam]
[5]
  Pe, Lit.: 2.5 *10^−6 cm/s

## Cn1c(=O)c2[nH]cnc2n(C)c1=O [Theophylline]
[5]
  Pe, Lit.: 0.12 *10^−6 cm/s
